Results as given in patent US4103011A, “Novel penicillin compounds and process for preparation thereof” (priority 1976, dated 1978).
Counter-ions that a name gives are not always drawn. Like-named read-outs stand apart in the source and are kept apart here.

Assays:
[1] = system: Klebsiella pneumoniae No. 13; assay: In vitro antibacterial activity (MIC); format: cell-based; details: Klebsiella pneumoniae, NO.13, read-out: minimum inhibitory concentration (MIC)
Excerpt: (§1) In vitro antibacterial activity against 20 strains of bacteria
(§2) The numerals in the table show minimum inhibitory concentrations (MIC)

[2] = system: Streptococcus faecalis P-2473; assay: In vitro antibacterial activity (MIC); format: cell-based; details: Enterococcus faecalis, P2473, read-out: minimum inhibitory concentration (MIC)
Excerpt: as §1, §2

[3] = system: Staphylococcus aureus 209P JC-1; assay: In vitro antibacterial activity (MIC); format: cell-based; details: Staphylococcus aureus 209P JC-1; read-out: minimum inhibitory concentration (MIC)
Excerpt: as §1, §2

[4] = system: Staphylococcus aureus No. 50774; assay: In vitro antibacterial activity (MIC); format: cell-based; details: Staphylococcus aureus No. 50774; read-out: minimum inhibitory concentration (MIC)
Excerpt: as §1, §2

[5] = system: Enterobacter cloacae P-2540; assay: In vitro antibacterial activity (MIC); format: cell-based; details: Enterobacter cloacae, P2540, read-out: minimum inhibitory concentration (MIC)
Excerpt: as §1, §2

Proteus mirabilis P-2381 = assay: In vitro antibacterial activity (MIC); format: cell-based; details: Proteus mirabilis, P2381, read-out: minimum inhibitory concentration (MIC)
Excerpt: as §1, §2

Shigella flexneri 2a = assay: In vitro antibacterial activity (MIC); format: cell-based; details: read-out: minimum inhibitory concentration (MIC)
Excerpt: as §1, §2

[6] = system: Escherichia coli NIHJ JC-2; assay: In vitro antibacterial activity (MIC); format: cell-based; details: Escherichia coli, NIHJJC2, read-out: minimum inhibitory concentration (MIC)
Excerpt: as §1, §2

[7] = system: Corynebacterium pyogenes C-21; assay: In vitro antibacterial activity (MIC); format: cell-based; details: Rhodococcus (subgen. Prescottella) equi, C21, read-out: minimum inhibitory concentration (MIC)
Excerpt: as §1, §2

Escherichia coli P-5101 = assay: In vivo efficacy against systemic infection; design: species or system male mice (ddY); details: P5101, in Mus musculus, 168 h, twice, about 5 minutes and 6 hours after infection, read-out: ED50 (median effective dose)
Outline: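 Male ddY mice of about 20g were infected intraperitoneally with E. coli P-5101 suspended in tryptosoy broth. Compounds dissolved in deionized water were given twice, about 5 minutes and 6 hours after infection. Effective dose was calculated by the Behrens-Kaerber method.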

CC1(C)S[C@@H]2[C@H](NC(=O)[C@H](NC(=O)c3c[nH]c4nc(N5CCN(C=O)CC5)ncc4c3=O)c3ccc(O)cc3)C(=O)N2[C@H]1C(=O)O [Compound 1, D-α-[5,8-Dihydro-2-(4-formyl-1-piperazinyl)-5-oxopyrido[2,3-d]pyrimidine-6-carboxamido]-p-hydroxybenzyl-penicillin sodium salt]
MIC [1]: 12.5 µg/mL | MIC [2]: 3.13 µg/mL | MIC [3]: 0.78 µg/mL | MIC [4]: 1.56 µg/mL | MIC [5]: 6.25 µg/mL | MIC (Proteus mirabilis P-2381): 3.13 µg/mL | MIC (Shigella flexneri 2a): 3.13 µg/mL | MIC [6]: 3.13 µg/mL | MIC [7]: 3.13 µg/mL | ED50 (Escherichia coli P-5101; iv): 2.9 mg/kg | ED50 (Escherichia coli P-5101; sc): 3.7 mg/kg
